According to ChEMBL document CHEMBL1201862, “PubChem BioAssay data set” (2004):
The source made the active and inactive calls.

How the values were obtained:
[1] = HEp-2 cell cytotoxicity, dose response, cytotoxicity control for RSV inhibitor project, HTS (AID 2410); format: functional; details: human respiratory syncytial virus
[2] = cells; format: functional, cell-based
[3] = test system: Vero; experiment: cells; format: functional, cell-based; details: Chlorocebus sabaeus
[4] = cells
[5] = target: Peroxisome proliferator-activated receptor gamma/Nuclear receptor coactivator 1 (Homo sapiens, UniProt P37231); experiment: (§1) TR-FRET dose response biochemical High Throughput Screening assay for agonists of the steroid receptor coactivator 1 (SRC-1) recruitment by the peroxisome proliferator-activated receptor gamma (PPAR gamma): non-selective agonists. [Related pubchem assays (depositor defined):AID1300, AID1808, AID504735, AID631]; format: protein assay
[6] = target: Peroxisome proliferator-activated receptor gamma/Nuclear receptor coactivator 3 (Homo sapiens, UniProt P37231); experiment: as §1, with “3 (SRC-3)” for “1 (SRC-1)”, “assays: 1301 (Confirmation screen.), 1048 (Primary screen.)]” for “assays (depositor defined):AID1300, AID1808, AID504735, AID631]”; format: functional
[7] = target: Peroxisome proliferator-activated receptor gamma/Nuclear receptor coactivator 2 (Homo sapiens, UniProt P37231); experiment: TR-FRET dose response biochemical High Throughput Screening assay for agonists of the steroid receptor coactivator 2 (SRC-2) recruitment by the peroxisome proliferator-activated receptor gamma (PPAR gamma): non-selective agonists. [Related pubchem assays: 1297, 1032 ]; format: functional
[8] = test system: CHO-K1; experiment: (§2) Counterscreen for antagonists of the orexin 1 receptor (OX1R; HCRTR1): Homogeneous time resolved fluorescence (HTRF)-based cell-based dose response assay to identify antagonists of the parental CHO-K1 cell line. [Related pubchem assays (depositor defined):AID434989, AID435008, AID463079, AID485270, AID492963, AID492964, AID492965, AID493232, AID504699, AID504701]; format: functional; details: Cricetulus griseus
[9] = as §2, with “Fluorescence-based” for “Homogeneous time resolved fluorescence (HTRF)-based”, “cell-based high throughput” for “cell-based”, “CHO” for “CHO-K1”; format: functional
[10] = target: T1, Orexin/Hypocretin receptor type 1 (Homo sapiens, UniProt O43613); experiment: Homogeneous Time Resolved Fluorescence (HTRF)-based cell-based high throughput dose response assay for antagonists of the orexin 1 receptor (OX1R; HCRTR1). [Related pubchem assays (depositor defined):AID434989, AID435008, AID463079, AID485270, AID492963, AID492964, AID492965, AID493232, AID504717, AID504718]; format: functional
T1 sequence (O43613 whole entry): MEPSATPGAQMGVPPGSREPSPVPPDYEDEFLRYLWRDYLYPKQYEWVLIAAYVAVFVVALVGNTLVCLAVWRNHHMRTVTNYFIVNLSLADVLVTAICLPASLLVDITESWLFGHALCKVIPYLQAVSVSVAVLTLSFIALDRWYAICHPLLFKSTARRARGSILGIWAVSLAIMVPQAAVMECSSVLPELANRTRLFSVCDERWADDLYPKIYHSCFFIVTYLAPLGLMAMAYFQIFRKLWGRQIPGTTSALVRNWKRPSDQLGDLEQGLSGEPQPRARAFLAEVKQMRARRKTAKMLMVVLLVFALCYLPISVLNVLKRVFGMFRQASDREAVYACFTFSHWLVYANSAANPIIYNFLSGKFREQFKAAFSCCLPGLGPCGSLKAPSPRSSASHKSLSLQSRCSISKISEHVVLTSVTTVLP

[11] = target: T1, Orexin/Hypocretin receptor type 1; experiment: Fluorescence-based cell-based high throughput dose response assay for antagonists of the orexin 1 receptor (OX1R; HCRTR1). [Related pubchem assays (depositor defined):AID434989, AID435008, AID463079, AID485270, AID492963, AID492964, AID492965, AID493232, AID504717, AID504718]; format: functional
[12] = target: T2, Orexin receptor type 2 (Homo sapiens, UniProt O43614); experiment: Counterscreen assay for antagonists of the orexin 1 receptor (OX1R; HCRTR1): Fluorescence-based cell-based dose response assay for antagonists of the orexin 2 receptor (OX2R; HCRTR2), run by assay provider.; format: functional
T2 sequence (O43614 whole entry): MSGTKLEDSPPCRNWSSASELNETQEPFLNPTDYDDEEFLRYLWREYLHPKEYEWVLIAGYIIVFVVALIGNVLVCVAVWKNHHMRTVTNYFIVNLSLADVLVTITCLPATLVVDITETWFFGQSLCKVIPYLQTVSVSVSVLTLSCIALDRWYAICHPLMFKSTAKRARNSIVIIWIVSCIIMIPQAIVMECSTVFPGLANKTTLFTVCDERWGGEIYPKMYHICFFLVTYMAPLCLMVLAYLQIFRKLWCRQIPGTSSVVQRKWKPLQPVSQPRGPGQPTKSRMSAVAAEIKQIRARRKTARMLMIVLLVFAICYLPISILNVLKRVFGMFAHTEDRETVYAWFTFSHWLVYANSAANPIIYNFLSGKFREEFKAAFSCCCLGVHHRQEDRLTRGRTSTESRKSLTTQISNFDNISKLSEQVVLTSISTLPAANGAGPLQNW

[13] = target: T2, Orexin receptor type 2; experiment: Counterscreen assay for antagonists of the orexin 1 receptor (OX1R; HCRTR1): Homogeneous Time Resolved Fluorescence (HTRF)-based cell-based dose response assay for antagonists of the orexin 2 receptor (OX2R; HCRTR2), run by assay provider.; format: functional
[14] = target: Cytochrome P450 2C9 (Homo sapiens, UniProt P11712)
[15] = test system: HEK293; experiment: NOD1 signaling inhibitors, primary screen, cell-based, luminescence, uHTS (AID 1578); format: functional; details: Homo sapiens
[16] = test system: HEK293; experiment: cells; format: functional, cell-based; details: Homo sapiens
[17] = test system: HEK293; experiment: cells; format: functional, cell-based; details: Homo sapiens; remark: listed apart in the source
[18] = target: Nucleotide-binding oligomerization domain-containing protein 2 (Homo sapiens, UniProt Q9HC29); experiment: NOD2 signaling inhibitors, cell-based, luminescence, uHTS, HEK293 (AID 1566); format: functional
[19] = test system: HEK293; experiment: NOD2 signaling inhibitors in MDP-stimulated cells, cell-based, uHTS, luminescence (AID 2001); format: functional; details: Homo sapiens
[20] = test system: HEK293; experiment: cells; format: functional, cell-based; details: Homo sapiens; remark: listed apart in the source
[21] = target: Cytochrome P450 3A4 (Homo sapiens, UniProt P08684);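 note: CYP3A4 tested as one member of a cytochrome P450 panel screen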
[22] = target: DNA dC->dU-editing enzyme APOBEC-3A (Homo sapiens, UniProt P31941); experiment: Dose Response confirmation of small molecule APOBEC3A DNA Deaminase Inhibitors via a fluorescence-based single-stranded DNA deaminase assay. [Related pubchem assays (depositor defined):AID493011, AID493024]; format: functional
[23] = target: DNA dC->dU-editing enzyme APOBEC-3G (Homo sapiens, UniProt Q9HC16); format: functional;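 note: Dose-response counterscreen measuring inhibition of APOBEC3G DNA deaminase activity, run while confirming APOBEC3A inhibitors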
[24] = inhibitors of intracellular T. cruzi replication, confirmation, NIH3T3 host cells, beta-gal luminescence (AID 2044); format: functional, cell-based;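 note: intracellular parasites grown in NIH/3T3 mouse fibroblasts as host cells; luminescent beta-galactosidase reporter signal from transgenic T. cruzi replicating inside host cells; inhibitors lower the luminescence signal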
[25] = cytotoxicity toward NIH3T3 fibroblasts, dose response, counter-screen, cell-based, ATP luminescence, mouse fibroblasts (AID 2010); format: functional;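 note: cells exposed to compound for about 90 hours before reading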
[26] = test system: Vero; experiment: cells; format: functional; details: Chlorocebus sabaeus
[27] = target: Cytochrome P450 2C19 (Homo sapiens, UniProt P33261); experiment: Cytochrome panel assay with activity outcomes. Panel member name: p450-cyp2c19 Compounds with AC50 equal or less than 10 uM are considered active; format: functional; details: read-out: AC50
[28] = THP-1 cell cytotoxicity, dose response, cytotoxicity control for non-replicating M. tuberculosis project (AID 489025); format: functional
[29] = Vero E6 cell cytotoxicity, dose response, cytotoxicity control for non-replicating M. tuberculosis project, secondary assay (AID 492998); format: functional, VeroE6; details: Vero C1008
[30] = target: T3, Microphthalmia-associated transcription factor (Homo sapiens, UniProt O75030); experiment: TRPM1 promoter luciferase signal decrease, dose response, MITF inhibitor project, cell-based, SK-MEL-5, cherry-picked, set 3 (AID 493073); format: functional
T3 sequence (O75030 whole entry): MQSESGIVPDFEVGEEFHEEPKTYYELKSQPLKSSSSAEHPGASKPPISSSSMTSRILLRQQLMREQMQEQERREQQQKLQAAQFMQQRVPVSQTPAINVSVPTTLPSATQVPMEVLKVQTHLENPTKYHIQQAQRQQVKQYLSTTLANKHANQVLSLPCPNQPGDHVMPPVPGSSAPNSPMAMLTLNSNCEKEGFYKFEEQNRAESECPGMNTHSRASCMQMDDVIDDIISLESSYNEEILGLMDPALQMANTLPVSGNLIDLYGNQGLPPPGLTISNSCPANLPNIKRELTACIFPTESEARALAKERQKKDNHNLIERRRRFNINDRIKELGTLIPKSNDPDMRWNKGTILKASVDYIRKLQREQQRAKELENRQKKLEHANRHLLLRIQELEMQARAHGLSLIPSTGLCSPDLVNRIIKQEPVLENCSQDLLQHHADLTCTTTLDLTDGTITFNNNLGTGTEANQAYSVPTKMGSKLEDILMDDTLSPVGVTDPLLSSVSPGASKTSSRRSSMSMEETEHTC

[31] = cells; format: functional
[32] = miR-122 activators in hepatoma reporter cells, dose response, cell-based, Huh7 psiCHECK-miR122, Renilla luciferase, cherry-picked (AID 651956); format: functional;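 note: huh7 hepatoma cells stably carrying a psiCHECK-2 miR-122 sensor plasmid; renilla luciferase signal reporting endogenous miR-122 activity after 48 h compound exposure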
[33] = target: FAD-linked sulfhydryl oxidase ALR (Homo sapiens, UniProt P55789); experiment: inhibitors of human ALR sulfhydryl oxidase, dose response, biochemical, H2O2 detection, luminescence, cherry-pick (AID 493248)
[34] = target: Cytochrome P450 2D6 (Homo sapiens, UniProt P10635);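 note: CYP2D6 member of a cytochrome P450 panel assay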

Sequence of Cytochrome P450 2C9 (P11712 whole entry): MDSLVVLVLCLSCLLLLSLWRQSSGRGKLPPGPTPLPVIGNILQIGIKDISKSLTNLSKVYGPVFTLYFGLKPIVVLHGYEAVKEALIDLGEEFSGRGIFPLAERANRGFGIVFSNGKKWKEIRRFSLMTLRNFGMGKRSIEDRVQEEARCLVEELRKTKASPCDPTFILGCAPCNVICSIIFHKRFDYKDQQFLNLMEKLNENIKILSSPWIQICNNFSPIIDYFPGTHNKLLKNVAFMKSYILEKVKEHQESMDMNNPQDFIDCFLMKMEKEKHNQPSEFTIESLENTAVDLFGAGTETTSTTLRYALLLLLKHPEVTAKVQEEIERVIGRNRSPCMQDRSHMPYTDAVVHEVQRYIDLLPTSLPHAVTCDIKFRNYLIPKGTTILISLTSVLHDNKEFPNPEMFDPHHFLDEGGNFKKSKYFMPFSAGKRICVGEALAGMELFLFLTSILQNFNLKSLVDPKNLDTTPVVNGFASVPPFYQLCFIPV
Sequence of DNA dC->dU-editing enzyme APOBEC-3A (P31941 whole entry): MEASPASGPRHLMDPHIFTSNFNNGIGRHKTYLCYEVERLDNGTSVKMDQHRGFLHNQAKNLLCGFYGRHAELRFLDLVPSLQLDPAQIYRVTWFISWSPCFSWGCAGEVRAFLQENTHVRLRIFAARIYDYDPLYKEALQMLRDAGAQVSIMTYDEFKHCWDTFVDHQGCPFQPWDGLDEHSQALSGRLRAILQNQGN
Sequence of DNA dC->dU-editing enzyme APOBEC-3G (Q9HC16 whole entry): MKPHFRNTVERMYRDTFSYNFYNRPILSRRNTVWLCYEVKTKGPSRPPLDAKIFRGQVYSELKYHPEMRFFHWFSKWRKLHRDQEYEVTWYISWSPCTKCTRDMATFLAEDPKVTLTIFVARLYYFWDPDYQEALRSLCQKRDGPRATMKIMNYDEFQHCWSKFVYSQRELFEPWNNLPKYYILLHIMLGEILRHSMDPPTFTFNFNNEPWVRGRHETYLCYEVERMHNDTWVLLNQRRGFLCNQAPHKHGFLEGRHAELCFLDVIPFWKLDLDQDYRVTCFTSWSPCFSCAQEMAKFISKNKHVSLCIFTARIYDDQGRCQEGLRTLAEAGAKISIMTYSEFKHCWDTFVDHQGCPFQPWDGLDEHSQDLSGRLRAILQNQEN
Sequence of Cytochrome P450 3A4 (P08684 whole entry): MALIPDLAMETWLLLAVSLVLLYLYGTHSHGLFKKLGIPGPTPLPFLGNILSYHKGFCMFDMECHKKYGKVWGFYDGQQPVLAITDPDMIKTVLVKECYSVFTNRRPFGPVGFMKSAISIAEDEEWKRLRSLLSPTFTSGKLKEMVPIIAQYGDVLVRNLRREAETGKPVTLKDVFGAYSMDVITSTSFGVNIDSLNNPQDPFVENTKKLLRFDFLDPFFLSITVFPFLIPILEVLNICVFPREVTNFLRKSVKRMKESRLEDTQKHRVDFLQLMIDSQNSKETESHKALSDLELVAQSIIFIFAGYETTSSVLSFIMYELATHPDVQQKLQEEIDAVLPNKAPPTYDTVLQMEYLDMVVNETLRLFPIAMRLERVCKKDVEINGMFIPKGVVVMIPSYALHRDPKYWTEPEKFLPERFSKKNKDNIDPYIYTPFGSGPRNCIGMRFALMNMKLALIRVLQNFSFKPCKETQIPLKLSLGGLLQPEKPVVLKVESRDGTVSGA
Sequence of Cytochrome P450 2C19 (P33261 whole entry): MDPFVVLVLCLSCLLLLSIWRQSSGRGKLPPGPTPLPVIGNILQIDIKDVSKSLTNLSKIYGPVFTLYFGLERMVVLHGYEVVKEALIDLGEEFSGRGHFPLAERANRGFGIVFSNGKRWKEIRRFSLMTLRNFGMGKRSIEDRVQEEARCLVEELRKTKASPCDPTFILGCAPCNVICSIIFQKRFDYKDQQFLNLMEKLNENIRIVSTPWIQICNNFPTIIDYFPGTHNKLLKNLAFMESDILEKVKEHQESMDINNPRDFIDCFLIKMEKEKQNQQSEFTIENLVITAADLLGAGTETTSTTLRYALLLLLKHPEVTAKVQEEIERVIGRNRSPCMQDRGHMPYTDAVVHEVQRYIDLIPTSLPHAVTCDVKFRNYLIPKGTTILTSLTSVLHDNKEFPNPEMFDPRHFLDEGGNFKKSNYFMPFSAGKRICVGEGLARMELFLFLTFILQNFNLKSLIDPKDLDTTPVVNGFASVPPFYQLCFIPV
Sequence of Peroxisome proliferator-activated receptor gamma/Nuclear receptor coactivator 1 (P37231 whole entry): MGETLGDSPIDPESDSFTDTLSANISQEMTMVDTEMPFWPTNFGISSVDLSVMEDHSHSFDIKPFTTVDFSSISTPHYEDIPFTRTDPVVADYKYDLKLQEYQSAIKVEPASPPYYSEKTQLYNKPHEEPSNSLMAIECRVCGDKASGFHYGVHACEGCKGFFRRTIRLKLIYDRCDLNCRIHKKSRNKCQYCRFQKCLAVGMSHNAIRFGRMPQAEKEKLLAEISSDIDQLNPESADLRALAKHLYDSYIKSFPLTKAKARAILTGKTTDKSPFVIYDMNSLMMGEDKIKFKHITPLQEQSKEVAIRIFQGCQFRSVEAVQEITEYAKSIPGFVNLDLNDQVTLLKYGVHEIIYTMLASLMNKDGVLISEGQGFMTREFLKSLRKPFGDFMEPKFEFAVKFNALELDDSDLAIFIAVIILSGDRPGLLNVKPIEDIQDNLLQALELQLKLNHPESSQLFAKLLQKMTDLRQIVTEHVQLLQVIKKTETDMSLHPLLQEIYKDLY
Sequence of Peroxisome proliferator-activated receptor gamma/Nuclear receptor coactivator 1 (Q15788 whole entry, further chain): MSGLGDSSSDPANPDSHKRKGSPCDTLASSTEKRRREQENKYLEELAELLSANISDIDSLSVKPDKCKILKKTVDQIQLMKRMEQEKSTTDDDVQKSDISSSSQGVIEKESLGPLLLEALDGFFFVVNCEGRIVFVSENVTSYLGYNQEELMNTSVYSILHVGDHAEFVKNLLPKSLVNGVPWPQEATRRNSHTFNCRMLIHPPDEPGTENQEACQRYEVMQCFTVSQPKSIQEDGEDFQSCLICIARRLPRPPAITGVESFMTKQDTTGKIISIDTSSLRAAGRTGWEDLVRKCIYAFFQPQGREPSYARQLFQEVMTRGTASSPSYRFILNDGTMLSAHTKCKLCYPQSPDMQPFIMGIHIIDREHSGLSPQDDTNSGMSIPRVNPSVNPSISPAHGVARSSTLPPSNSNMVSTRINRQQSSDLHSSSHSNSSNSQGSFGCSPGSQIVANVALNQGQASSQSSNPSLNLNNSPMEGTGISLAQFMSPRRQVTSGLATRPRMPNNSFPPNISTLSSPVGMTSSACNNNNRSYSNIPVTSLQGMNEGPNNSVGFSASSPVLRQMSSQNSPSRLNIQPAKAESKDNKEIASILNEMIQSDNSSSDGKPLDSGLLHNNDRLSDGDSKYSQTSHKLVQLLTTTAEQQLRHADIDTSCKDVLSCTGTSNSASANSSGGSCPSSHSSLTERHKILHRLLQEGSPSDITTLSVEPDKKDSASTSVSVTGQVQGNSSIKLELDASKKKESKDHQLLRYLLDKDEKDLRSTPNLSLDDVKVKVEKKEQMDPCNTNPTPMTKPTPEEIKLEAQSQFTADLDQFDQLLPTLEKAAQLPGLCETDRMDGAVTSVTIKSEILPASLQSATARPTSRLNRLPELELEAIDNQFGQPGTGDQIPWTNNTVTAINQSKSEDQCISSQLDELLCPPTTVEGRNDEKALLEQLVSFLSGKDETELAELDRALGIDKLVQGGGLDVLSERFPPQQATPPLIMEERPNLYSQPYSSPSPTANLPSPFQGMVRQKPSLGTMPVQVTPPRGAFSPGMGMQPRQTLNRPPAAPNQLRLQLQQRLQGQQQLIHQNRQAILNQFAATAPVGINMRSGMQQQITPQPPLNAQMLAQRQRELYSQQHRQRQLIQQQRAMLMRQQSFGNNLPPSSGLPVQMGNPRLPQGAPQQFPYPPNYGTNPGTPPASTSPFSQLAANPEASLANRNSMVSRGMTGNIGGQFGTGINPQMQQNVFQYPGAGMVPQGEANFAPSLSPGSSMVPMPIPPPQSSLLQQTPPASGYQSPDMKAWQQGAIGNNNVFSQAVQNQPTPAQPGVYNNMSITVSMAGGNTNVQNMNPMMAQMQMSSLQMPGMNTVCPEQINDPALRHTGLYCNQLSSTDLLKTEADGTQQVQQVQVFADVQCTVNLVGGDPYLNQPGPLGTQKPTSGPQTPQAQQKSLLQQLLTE
Sequence of Nucleotide-binding oligomerization domain-containing protein 2 (Q9HC29 whole entry, the tested form may be a part): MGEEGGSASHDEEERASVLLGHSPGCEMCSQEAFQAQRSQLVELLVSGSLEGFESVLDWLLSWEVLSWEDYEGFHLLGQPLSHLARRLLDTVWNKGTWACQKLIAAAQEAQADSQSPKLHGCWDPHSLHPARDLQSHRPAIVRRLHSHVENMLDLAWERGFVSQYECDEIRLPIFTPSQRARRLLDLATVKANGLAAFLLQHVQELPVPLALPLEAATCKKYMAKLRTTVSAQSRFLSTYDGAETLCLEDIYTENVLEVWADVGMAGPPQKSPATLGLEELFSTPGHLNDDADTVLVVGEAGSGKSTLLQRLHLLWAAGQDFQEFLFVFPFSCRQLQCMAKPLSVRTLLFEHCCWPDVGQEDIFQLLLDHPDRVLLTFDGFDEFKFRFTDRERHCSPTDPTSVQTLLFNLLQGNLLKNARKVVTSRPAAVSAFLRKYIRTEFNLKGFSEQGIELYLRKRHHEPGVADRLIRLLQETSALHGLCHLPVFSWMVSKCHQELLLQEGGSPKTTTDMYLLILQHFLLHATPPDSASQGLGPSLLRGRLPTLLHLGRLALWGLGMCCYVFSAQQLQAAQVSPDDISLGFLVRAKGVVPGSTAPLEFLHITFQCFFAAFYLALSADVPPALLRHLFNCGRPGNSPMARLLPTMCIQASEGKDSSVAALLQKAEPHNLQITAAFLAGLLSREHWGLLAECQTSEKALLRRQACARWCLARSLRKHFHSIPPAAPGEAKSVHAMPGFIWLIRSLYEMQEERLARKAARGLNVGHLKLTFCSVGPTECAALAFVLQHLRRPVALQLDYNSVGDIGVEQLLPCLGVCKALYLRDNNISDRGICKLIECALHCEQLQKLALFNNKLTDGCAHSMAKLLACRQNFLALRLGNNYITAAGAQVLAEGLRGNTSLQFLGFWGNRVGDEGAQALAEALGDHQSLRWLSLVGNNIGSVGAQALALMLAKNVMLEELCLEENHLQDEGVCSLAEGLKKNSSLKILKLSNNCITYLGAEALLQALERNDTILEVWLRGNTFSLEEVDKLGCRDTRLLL

Structure (SMILES): Cc1ccc2c(c1)cc(C(=O)NCc1ccccc1)n2C
- CC50 [1]: 44.9 µM (active)
- EC50 [2]: > 350 µM (not active)
- IC50 [3]: 17.8 µM (active)
- IC50 [4]: 24 µM (active)

Structure (SMILES): Cc1cc(SCC(=O)c2ccc3c(c2)OCO3)nc2ccccc12
- EC50 [5]: 10.2 µM (inactive)
- EC50 [6]: > 79.4 µM (not active)
- EC50 [7]: 10.4 µM (not active)
- IC50 [8]: > 66.2 µM (inactive)
- IC50 [9]: > 49.7 µM (inactive)
- IC50 [10]: 3.34 µM (active)
- IC50 [11]: 18.8 µM (inactive)
- IC50 [12]: 14.1 µM (inactive)
- IC50 [13]: 11.2 µM (inactive)

Structure (SMILES): CNc1nc(-c2ccc(N(C)C)cc2)nc2ccccc12
- AC50 [14]: inconclusive

Structure (SMILES): CC[C@]12c3[nH]c4cc(-c5ccco5)ccc4c3CCN1C(=O)[C@@H](CC(=O)NC/C=C(\C)CCC=C(C)C)C[C@@H]2C(=O)N1CCN(C(=O)c2ccco2)CC1
- IC50 [8]: > 66.2 µM (inactive)
- IC50 [9]: > 49.8 µM (inactive)
- IC50 [10]: 1.07 µM (active)
- IC50 [11]: 3.23 µM (active)
- IC50 [12]: 39.5 µM (inactive)
- IC50 [13]: 2.05 µM (active)

Structure (SMILES): Cc1c(Nc2c3ccccc3nc3ccccc23)c(=O)n(-c2ccccc2)n1C
- EC50 [15]: > 20 µM (inactive)
- IC50 [16]: > 20 µM (inactive)
- IC50 [17]: > 20 µM (inactive)
- EC50 [18]: > 20 µM (inactive)
- IC50 [19]: > 20 µM (inactive)
- IC50 [20]: > 20 µM (inactive)

Structure (SMILES): CN1CCN(c2ncncc2-c2ccc(N(C)C)cc2)CC1
- AC50 [21]: 2 µM (inconclusive)
- AC50 [14]: inconclusive

Structure (SMILES): C[N+]1(CCOC(=O)C2(c3ccccc3)CCCC2)CCCCC1
- IC50 [22]: 3.89 µM (active)
- IC50 [23]: 3.57 µM (active)

Structure (SMILES): COc1ccccc1Nc1ncnc2c1c(C)c(C)n2CCCN(C)C
- EC50 [24]: 0.156 µM (active)
- EC50 [25]: 4.51 µM (active)
- IC50 [3]: 23.2 µM (active)
- CC50 [26]: > 25 µM (active)

Structure (SMILES): COc1cc(NC(=O)C2CCN(S(=O)(=O)c3cccc4nonc34)CC2)cc(OC)c1
- AC50 [27]: 15.8 µM (inconclusive)
- AC50 [14]: inconclusive

Structure (SMILES): CCOc1ccccc1-n1nnnc1SCC(=O)Nc1cc(C)on1
- AC50 [21]: 3.98 µM (inconclusive)
- AC50 [14]: inconclusive

Structure (SMILES): Cc1ccc(-n2nnnc2CNC(=O)c2ccc([N+](=O)[O-])o2)cc1C
- EC50 [24]: 0.145 µM (active)
- EC50 [25]: > 30 µM (not active)
- CC50 [28]: 22.5 µM (active)
- CC50 [29]: 12.1 µM (active)
- AC50 [30]: 9.72 µM (active)
- IC50 [31]: 8.5 µM (active)

Structure (SMILES): CCCN(CCC)CCNC(=O)C1CCN(Cc2nc(-c3ccc(Cl)cc3)oc2C)CC1
- IC50 [3]: 10.8 µM (active)
- CC50 [26]: > 25 µM (active)

Structure (SMILES): Cc1ccccc1N(CC(=O)NC1CCCC1)C(=O)c1oc(C(C)(C)C)cc1C
- IC50 [8]: > 66.2 µM (inactive)
- IC50 [9]: > 49.8 µM (inactive)
- IC50 [10]: 0.264 µM (active)
- IC50 [11]: 3.52 µM (active)
- IC50 [12]: > 88.8 µM (inactive)
- IC50 [13]: > 50 µM (inactive)

Structure (SMILES): C[N+](C)(C)c1ccccc1
- IC50 [22]: 2.16 µM (active)
- IC50 [23]: 3.33 µM (active)

Structure (SMILES): CN1CCN(S(=O)(=O)c2ccc(C3CCCCC3)cc2)CC1
- IC50 [22]: 9.2 µM (active)
- IC50 [23]: 16.8 µM (active)

Structure (SMILES): CN1C(=O)c2cc(NC(=O)c3cccc(F)c3)ccc2OC[C@H]2O[C@H](CC(=O)O)CC[C@H]21
- AC50 [32]: 0.366 µM (active)

Structure (SMILES): OCc1ccc(-c2nn(Cc3ccccc3)c3ccccc23)o1
- AC50 [33]: 10 µM (active)
- AC50 [27]: 10 µM (inconclusive)
- AC50 [32]: 0.547 µM (active)
- AC50 [34]: 39.8 µM (inconclusive)
